In the NIST ThermoML archive (doi:10.1021/je800101v):

Assay: xn = mol fraction of the nth substance listed
Conditions: Ring tensiometer

CCCCCCCO [heptan-1-ol] + OCCO
surface tension liquid-gas [mN/m]
Conditions	298.15 K	303.15 K	308.15 K	313.15 K	318.15 K
x1 = 0.0559	29.24	29.16	28.96	28.78	28.64
x1 = 0.1059	27.73	28.02	27.88	27.71	27.55
x1 = 0.1508	27.18	27.66	27.55	27.42	27.28
x1 = 0.1914	27.05	27.54	27.21	27.06	26.91
x1 = 0.2512	26.93	27.36	26.98	26.81	26.67
x1 = 0.3027	26.78	27.2	26.84	26.71	26.57
x1 = 0.3559	26.67	27.07	26.69	26.53	26.35
x1 = 0.4085	26.57	26.89	26.65	26.42	26.28
x1 = 0.4532	26.41	26.77	26.57	26.32	26.16
x1 = 0.4966	26.32	26.67	26.42	26.23	26.07
x1 = 0.5502	26.25	26.6	26.24	26.07	25.91
x1 = 0.5999	26.17	26.48	26.12	25.92	25.78
x1 = 0.6369	26	26.39	26.09	25.83	25.65
x1 = 0.6928	26.08	26.31	26.01	25.68	25.52
x1 = 0.7246	26.01	26.25	25.91	25.62	25.48
x1 = 0.7978	25.92	26.18	25.85	25.52	25.37
x1 = 0.8403	25.83	26.12	25.78	25.51	25.31
x1 = 0.8875	25.71	26.07	25.68	25.45	25.21
x1 = 0.9404	25.62	26.02	25.62	25.45	25.14

CCCCCO [pentan-1-ol] + OCCO
surface tension liquid-gas [mN/m]
Conditions	298.15 K	303.15 K	308.15 K	313.15 K	318.15 K
x1 = 0.0488	35.01	34.4	33.65	33.18	32.85
x1 = 0.0931	32.1	30.89	30.71	30.51	30.37
x1 = 0.1523	29.93	29.14	29.25	29.05	28.87
x1 = 0.2043	29.26	28.56	28.41	28.27	28.09
x1 = 0.2502	28.35	27.94	27.81	27.67	27.51
x1 = 0.2912	28.04	27.65	27.51	27.35	27.17
x1 = 0.3503	27.01	27.05	26.91	26.8	26.68
x1 = 0.4094	27.39	26.62	26.48	26.31	26.18
x1 = 0.4586	26.71	26.19	25.98	25.82	25.69
x1 = 0.5003	26.75	25.77	25.61	25.43	25.27
x1 = 0.552	26.53	25.39	25.21	25.02	24.91
x1 = 0.5982	25.71	25.15	24.98	24.81	24.68
x1 = 0.6425	26.32	24.96	24.79	24.67	24.53
x1 = 0.6979	26.21	24.75	24.57	24.41	24.25
x1 = 0.7197	26.12	24.63	24.51	24.37	24.19
x1 = 0.7739	25.98	24.35	24.18	23.98	23.82
x1 = 0.837	24.89	24.23	24.15	23.92	23.78
x1 = 0.9113	25.45	24.13	24	23.81	23.65
x1 = 0.9536	25.25	24.02	23.89	23.75	23.61
